27 compounds from patent publication US8580829B2 (Boehringer Ingelheim International GmbH, priority 2010, dated 2013) can be followed below.

Read-outs that look alike come from different tables or passages of the source.

Assay [1] concerns the target T1, recombinant human FLAP protein (Homo sapiens, UniProt P20292).
T1 construct: made in house; host or cells: Sf9 insect cells (100,000 x g membrane fraction)
T1 sequence (P20292 1-161): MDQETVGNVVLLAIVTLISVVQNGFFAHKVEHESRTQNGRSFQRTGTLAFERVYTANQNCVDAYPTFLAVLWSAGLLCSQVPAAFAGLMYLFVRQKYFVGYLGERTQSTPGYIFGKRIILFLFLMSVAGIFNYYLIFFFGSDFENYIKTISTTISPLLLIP
In words: FLAP binding assay (Scintillation Proximity Assay, displacement of [125I]L-691,831). The following applies: recombinant human FLAP membranes, [125I]L-691,831 probe; read-out: FLAP SPA IC50. In a few lines: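 Membranes came from Sf9 insect cells expressing recombinant human FLAP, collected as the 100,000×g pellet in Tris pH 7.5/MgCl2/EDTA buffer. 5 μg membrane protein was coupled to WGA SPA beads for 1 h.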

The test system of assay [2] is synthesis of LTB4 in human whole blood. In words: human whole blood LTB4 production inhibition assay. The format is cell-based. The following applies: heparinized human whole blood, calcimycin 20 μM, read-out: hWB LTB4 IC50. In a few lines:
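Readout: plasma LTB4 by antibody-based HTRF. Compound added to heparinized human whole blood, 15 min 37° C; calcimycin 20 μM final (PBS pH 7.4), 30 min 37° C; spun 1500×g 5 min, plasma taken.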

With `Nc1ncc(-c2ccc(C3(c4noc(-c5ccc(N6CCNCC6)nc5)n4)CCC3)cc2)cn1` [Example 116, 5-(4-{1-[5-(6-piperazin-1-yl-pyridin-3-yl)-1,2,4-oxadiazol-3-yl]-cyclobutyl}-phenyl)-pyrimidin-2-ylamine], the IC50 came to 1.8 nM in assay [1] and 150 nM in assay [2] (Homo sapiens).
`Cc1ccc(-c2nc(C3(c4ccc(-c5cnc(N)nc5)cc4)CCC3)no2)cc1Cl` [Example 53, 5-(4-{1-[5-(3-Chloro-4-methyl-phenyl)-1,2,4-oxadiazol-3-yl]-cyclobutyl}-phenyl)-pyrimidin-2-ylamine]: the IC50 in assay [1] stood at 6.2 nM; in assay [2] (Homo sapiens) it was 580 nM.
As to `Nc1ncc(-c2ccc(C3(c4noc(-c5cnc(N6CCNC(=O)C6)cn5)n4)CCC3)cc2)cn1` [Example 201, 5′-(3-{1-[4-(2-Amino-pyrimidin-5-yl)-phenyl]-cyclobutyl}-1,2,4-oxadiazol-5-yl)-5,6-dihydro-4H-1,2′-bipyrazinyl-3-one], the IC50 in assay [1] stood at 2.3 nM; in assay [2] (Homo sapiens) it was 400 nM.
The matching figures for `Cn1cc(-c2nc(C3(c4ccc(-c5cnc(N)nc5)cc4)CC3)no2)cn1` [Example 257, 5-(4-{1-[5-(1-Methyl-1H-pyrazol-4-yl)-[1,2,4]oxadiazol-3-yl]-cyclopropyl}-phenyl)-pyrimidin-2-ylamine]: 100 nM and 2200 nM.
Regarding `Nc1ncc(-c2ccc(C3(c4noc(-c5ccc(N6CCC[C@@H]6CO)nc5)n4)CCC3)cc2)cn1` [Example 102, {(R)-1-[5-(3-{1-[4-(2-Amino-pyrimidin-5-yl)-phenyl]-cyclobutyl}-1,2,4-oxadiazol-5-yl)-pyridin-2-yl]-pyrrolidin-2-yl}-methanol], the IC50 in assay [1] is 2.5 nM; in assay [2] (Homo sapiens), 180 nM.
The matching figures for `Cn1cnc(-c2nc(C3(c4ccc(-c5cnc(N)nc5)cc4)CCC3)no2)c1` [Example 23]: 4.2 nM and 73 nM.
On the same counts, the results for `Nc1ncc(-c2ccc(C3(c4noc(-c5ccccn5)n4)CCOCC3)cc2)cn1` [Example 145, 5-{4-[4-(5-pyridin-2-yl-1,2,4-oxadiazol-3-yl)-tetrahydro-pyran-4-yl]-phenyl}-pyrimidin-2-ylamine] are 78 nM and over 5000 nM.
The matching figures for `CS(=O)(=O)C1CCN(c2ccc(-c3nc(C4(c5ccc(-c6cnc(N)nc6)cc5)CCC4)no3)cn2)C1` (stereo not drawn) [Example 110, 5-[4-(1-{5-[6-(3-Methanesulfonyl-pyrrolidin-1-yl)-pyridin-3-yl]-1,2,4-oxadiazol-3-yl}-cyclobutyl)-phenyl]-pyrimidin-2-ylamine]: 0.92 nM and 110 nM.
With `Nc1ncc(-c2ccc(C3(c4noc(-c5ccc(N6CCS(=O)(=O)CC6)nc5)n4)CCC3)cc2)cn1` [Example 107, 5-[4-(1-{5-[6-(1,1-Dioxo-1λ^6-thiomorpholin-4-yl)-pyridin-3-yl]-1,2,4-oxadiazol-3-yl}-cyclobutyl)-phenyl]-pyrimidin-2-ylamine], the IC50 is 1.4 nM in assay [1] and 98 nM in assay [2] (Homo sapiens).
The matching figures for `Cn1cc(-c2nc(C3(c4ccc(-c5ccc(N)nn5)cc4)CCC3)no2)cn1` [Example 258, 6-(4-{1-[5-(1-Methyl-1H-pyrazol-4-yl)-[1,2,4]oxadiazol-3-yl]-cyclobutyl}-phenyl)-pyridazin-3-ylamine]: 73 nM and 610 nM.
The matching figures for `Cc1cc(-c2nc(C3(c4ccc(-c5cnc(N)nc5)cc4)CCC3)no2)[nH]n1` [Example 5, 5-(4-{1-[5-(5-Methyl-2H-pyrazol-3-yl)-1,2,4-oxadiazol-3-yl]-cyclobutyl}-phenyl)-pyrimdin-2-ylamine]: 2.4 nM and over 5000 nM.
On the same counts, the results for `CN(C(=O)Cn1cc(-c2nc(C3(c4ccc(-c5cnc(N)nc5)cc4)CCC3)no2)cn1)C1CCOCC1` [Example 235, 2-[4-(3-{1-[4-(2-Amino-pyrimidin-5-yl)-phenyl]-cyclobutyl}-[1,2,4]oxadiazol-5-yl)-pyrazol-1-yl]-N-methyl-N-(tetrahydro-pyran-4-yl)-acetamide] are 1.7 nM and 67 nM.
Regarding `Cc1noc(C)c1-c1nc(C2(c3ccc(-c4cnc(N)nc4)cc3)CCC2)no1` [Example 164, 5-(4-{1-[5-(3,5-Dimethyl-isoxazol-4-yl)-1,2,4-oxadiazol-3-yl]-cyclobutyl}-phenyl)-pyrimidin-2-ylamine], the figures for the IC50 in assay [1] and in assay [2] (Homo sapiens) were 5.5 nM and 570 nM, respectively.
`Nc1ncc(-c2ccc(C3(c4noc(-c5cccnn5)n4)CCC3)cc2)cn1` [Example 8, 5-{4-[1-(5-Pyridazin-3-yl-1,2,4-oxadiazol-3-yl)-cyclobutyl]-phenyl}-pyrimidin-2-ylamine]: the values for the IC50 in assay [1] and in assay [2] (Homo sapiens) were 8.5 nM and 400 nM, respectively.
In the case of `CN(C)C(=O)Cn1cc(-c2nc(C3(c4ccc(-c5cnc(N)nc5)cc4)CCC3)no2)cn1` [Example 188, 2-[4-(3-{1-[4-(2-amino-pyrimidin-5-yl)-phenyl]-cyclobutyl}-1,2,4-oxadiazol-5-yl)-pyrazol-1-yl]-N,N-dimethyl-acetamide], the IC50 in assay [1] was 6.2 nM; in assay [2] (Homo sapiens), 81 nM.
In the case of `Nc1ncc(-c2ccc(C3(c4noc(-c5cnc(N6CCNCC6)cn5)n4)CCC3)cc2)cn1` [Example 214, 5-(4-{1-[5-(3,4,5,6-Tetrahydro-2H-[1,2′]bipyrazinyl-5′-yl)-[1,2,4]oxadiazol-3-yl]-cyclobutyl}-phenyl)-pyrimidin-2-ylamine], the IC50 in assay [1] worked out at 4 nM; in assay [2], 150 nM.
On to `COC(=O)[C@H]1CN(c2cnc(-c3nc(C4(c5ccc(-c6cnc(N)nc6)cc5)CCC4)no3)cn2)CCN1` [Example 308, (R)-5′-(3-{1-[4-(2-Amino-pyrimidin-5-yl)-phenyl]-cyclobutyl}-1,2,4-oxadiazol-5-yl)-3,4,5,6-tetrahydro-2H-1,2′-bipyrazinyl-3-carboxylic acid methyl ester], for which the IC50 in assay [1] came to 5 nM; in assay [2], 480 nM.
`COCCNC(=O)c1ccc(-c2nc(C3(c4ccc(-c5cnc(N)nc5)cc4)CCC3)no2)cn1` [Example 76, 5-(3-{1-[4-(2-Amino-pyrimidin-5-yl)-phenyl]-cyclobutyl}-1,2,4-oxadiazol-5-yl)-pyridine-2-carboxylic acid (2-methoxy-ethyl)-amide]: the results for the IC50 in assay [1] and in assay [2] (Homo sapiens) were 3.9 nM and 190 nM, respectively.
The matching figures for `CN(CC1CCCO1)C(=O)Cn1cc(-c2nc(C3(c4ccc(-c5cnc(N)nc5)cc4)CCC3)no2)cn1` (stereo not drawn) [Example 242, 2-[4-(3-{1-[4-(2-Amino-pyrimidin-5-yl)-phenyl]-cyclobutyl}-[1,2,4]oxadiazol-5-yl)-pyrazol-1-yl]-N-methyl-N-(tetrahydro-furan-2-ylmethyl)-acetamide]: 5.4 nM and 120 nM.
Take `CC(C)(O)CNc1cnc(-c2nc(C3(c4ccc(-c5cnc(N)nc5)cc4)CCC3)no2)cn1` [Example 120, 1-[5-(3-{1-[4-(2-Amino-pyrimidin-5-yl)-phenyl]-cyclobutyl}-1,2,4-oxadiazol-5-yl)-pyrazin-2-ylamino]-2-methyl-propan-2-ol]: the IC50 in assay [1] turned out to be 9.1 nM; in assay [2] (Homo sapiens), 740 nM.
The matching figures for `Nc1ncc(-c2ccc(C3(c4noc(-c5cnc(N6CCC[C@H]6CO)cn5)n4)CCC3)cc2)cn1` [Example 194, {(S)-1-[5-(3-{1-[4-(2-Amino-pyrimidin-5-yl)-phenyl]-cyclobutyl}-1,2,4-oxadiazol-5-yl)-pyrazin-2-yl]-pyrrolidin-2-yl}-methanol]: 3 nM and 85 nM.
The matching figures for `COc1cc(-c2nc(C3(c4ccc(-c5cnc(N)nc5)cc4)CCC3)no2)on1` [Example 33, 5-(4-{1-[5-(3-Methoxy-isoxazol-5-yl)-1,2,4-oxadiazol-3-yl]-cyclobutyl}-phenyl)-pyrimidin-2-ylamine]: 4 nM and 550 nM.
Take `Nc1ncc(-c2ccc(C3(c4noc(-c5csc(C6CCNCC6)n5)n4)CCC3)cc2)cn1` [Example 269]: the IC50 in assay [1] amounted to 5.6 nM; in assay [2] it was 320 nM.
Turning to `Nc1ncc(-c2ccc(C3(c4noc(-c5ccc(N6CC[C@H](O)C6)nc5)n4)CCC3)cc2)cn1` [Example 105, (S)-1-[5-(3-{1-[4-(2-Amino-pyrimidin-5-yl)-phenyl]-cyclobutyl}-1,2,4-oxadiazol-5-yl)-pyridin-2-yl]-pyrrolidin-3-ol], the IC50 was determined as 1.9 nM in assay [1] and 78 nM in assay [2] (Homo sapiens).
As to `Nc1ncc(-c2ccc(C3(c4noc(-c5cnc(N)nc5)n4)CCC3)cc2)cn1` [Example 18, 5-(4-{1-[5-(2-Amino-pyrimidine-5-yl)-1,2,4-oxadiazole-3-yl]-cyclobutyl}-phenyl)-pyrimidin-2-ylamine], the IC50 in assay [1] is 2.9 nM; in assay [2] (Homo sapiens), 300 nM.
The matching figures for `CC(C)(O)CNc1ccc(-c2nc(C3(c4ccc(-c5cnc(N)nc5)cc4)CCC3)no2)nn1` [Example 114, 1-[6-(3-{1-[4-(2-Amino-pyrimidin-5-yl)-phenyl]-cyclobutyl}-1,2,4-oxadiazol-5-yl)-pyridazin-3-ylamino]-2-methyl-propan-2-ol]: 2.6 nM and 290 nM.
On the same counts, the results for `Nc1ncc(-c2ccc(C3(c4noc(N5CC[C@H](O)C5)n4)CCC3)cc2)cn1` [Example 287, (S)-1-(3-{1-[4-(2-Amino-pyrimidin-5-yl)-phenyl]-cyclobutyl}-[1,2,4]oxadiazol-5-yl)-pyrrolidin-3-ol] are 36 nM and 200 nM.

In general, IC50 refers to the concentration needed to halve the response being measured.
